Measured values taken from patent US7265131B2, “Isoquinolinone derivatives and their use as therapeutic agents” (Exelixis, Inc., priority 2002, dated 2007).

Target: T1, LXR α (Homo sapiens, UniProt Q13133)
T1 construct: Co-transfection expression plasmids, comprising full-length LXR α (pCMX-hLXR α); expressed in transfected cells; host or cells: CV-1 African Green Monkey kidney cells, transient transfection
T1 sequence (Q13133 1-447): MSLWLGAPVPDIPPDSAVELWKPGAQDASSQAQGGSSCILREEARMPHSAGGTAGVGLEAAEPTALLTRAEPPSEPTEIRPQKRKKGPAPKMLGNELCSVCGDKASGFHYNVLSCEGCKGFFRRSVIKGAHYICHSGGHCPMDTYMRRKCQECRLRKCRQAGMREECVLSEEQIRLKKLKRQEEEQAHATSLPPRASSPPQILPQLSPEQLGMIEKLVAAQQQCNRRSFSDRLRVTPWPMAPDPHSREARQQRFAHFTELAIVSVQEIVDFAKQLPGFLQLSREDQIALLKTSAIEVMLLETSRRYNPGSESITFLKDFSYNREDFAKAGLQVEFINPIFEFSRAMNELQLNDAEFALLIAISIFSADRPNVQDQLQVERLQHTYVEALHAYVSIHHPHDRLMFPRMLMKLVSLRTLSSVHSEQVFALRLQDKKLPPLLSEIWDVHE
T1 sequence (P19793 1-462 partner): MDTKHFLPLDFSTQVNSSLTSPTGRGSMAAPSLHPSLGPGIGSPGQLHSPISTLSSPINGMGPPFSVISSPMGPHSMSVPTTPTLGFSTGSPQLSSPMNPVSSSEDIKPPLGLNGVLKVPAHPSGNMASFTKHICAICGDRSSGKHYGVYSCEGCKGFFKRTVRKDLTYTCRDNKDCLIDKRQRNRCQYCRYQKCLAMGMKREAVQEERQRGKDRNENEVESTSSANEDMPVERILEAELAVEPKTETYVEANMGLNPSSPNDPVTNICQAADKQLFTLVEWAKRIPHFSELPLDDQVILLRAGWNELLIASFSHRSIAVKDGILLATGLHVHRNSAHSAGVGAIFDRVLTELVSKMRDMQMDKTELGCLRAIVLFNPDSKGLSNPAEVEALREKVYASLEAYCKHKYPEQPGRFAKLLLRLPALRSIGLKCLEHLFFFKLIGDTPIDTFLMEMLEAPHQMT
Test: LXR/LXRE co-transfection assay (luciferase reporter, CV-1 cells)
Assay type: cell-based
Settings: for Emax: CV-1, average percent efficacy, relative to control N-(3-((4-fluorophenyl)-(naphthalene-2-sulfonyl)amino)propyl)-2,2-dimethylpropionamide, read-out: % Eff(a); for EC50: average EC50 for agonism, cotransfection assay, CV-1 cells
Excerpt: To measure the ability of compounds to activate or inhibit the transcriptional activity of LXR in a cell based assay, the co-transfection assay was used. It has been shown that LXR functions as a heterodimer with RXR. For the co-transfection assay, expression plasmids for LXR and RXR are introduced via transient transfection into mammalian cells along with a luciferase reporter plasmid that contains one copy of a DNA sequence that is bound by LXR-RXR heterodimers (LXRE; Willy, P. et al. 1995). Treatment of transfected cells with an LXR agonist increases the transcriptional activity of LXR, which is measured by an increase in luciferase activity.
1. CV-1 African Green Monkey Kidney Cells
2. Co-transfection expression plasmids, comprising full-length LXR α (pCMX-hLXR α), LXR β (pCMX-hLXR β), or RXR α (pCMX-RXR), reporter plasmid (LXREx1-Tk-Luciferase), and control (pCMX-Galactosidase expression vector) (Willey et al. Genes & Development 9 1033-1045 (1995)).
CV-1 cells were prepared 24 hours prior to the experiment by plating them into T-175 flasks or 500 cm^2 dishes in order to achieve 70-80% confluency on the day of the transfection. The number of cells to be transfected was determined by the number of plates to be screened. Each 384 well plate requires 1.92×10^6 cells or 5000 cells per well. DNA Transfection Reagent was prepared by mixing the required plasmid DNAs with a cationic lipid transfection reagent FuGENE6 (Roche) by following the instructions provided with the reagents. Optimal DNA amounts were determined empirically per cell line and size of vessel to be transfected. 10-12 mL of media was added to the DNA Transfection Reagent and this mixture was added to the cells after aspirating media from the T175 cm^2 flask. Cells were then incubated at least 5 hours at 37° C. to prepare screening cells.
Luciferase assay reagent was prepared by combining before use (per 10 mL):
Assay plates were prepared by dispensing 5 μL of compound per well of a 384 well plate to achieve final compound concentration of 10 μM and no more than 1% DMSO. Media was removed from the screening cells, the cells trypsinized, harvested cells by centrifugation, counted, and plated at a density of approximately 5000 cells per well in the 384 well assay plate prepared above in a volume of about 45 μL. Assay plates containing both compounds and screening cells (50 μL in total volume) were incubated for 20 hours at 37° C.
After incubation with compounds, media was removed from the cells and lysis buffer (30 μuL/well) added. After 30 minutes at ambient temperature, luciferase assay buffer (30 μL/well) was added and the assay plates read on a luminometer (PE Biosystems Northstar reader with on-board injectors, or equivalent). Plates were read immediately after addition of luciferase assay buffer.
The LXR/LXRE co-transfection assay can be used to establish the EC50/IC50 values for potency and percent activity or inhibition for efficacy. Efficacy defines the activity of a compound relative to a high control ((N-(3-((4-fluorophenyl)-(naphthalene-2-sulfonyl)amino)propyl)-2,2-dimethylpropionamide)) or a low control (DMSO/vehicle). The dose response curves are generated from an 8 point curve with concentrations differing by ½ LOG units. Each point represents the average of 4 wells of data from a 384 well plate.
The data from this assay is fitted to the following equation, from the EC50 value may be solved: Y=Bottom+(Top-Bottom)/(1+10^((logEC50-X*HillSlope))
The EC50/IC50 is therefore defined as the concentration at which an agonist or antagonist elicits a response that is half way between the Top (maximum) and Bottom (baseline) values. The EC50/IC50 values represented are the averages of at least 3 independent experiments. […]

Row | Structure (SMILES) | Emax [%] | EC50 [nM]
1 | Cc1ccc(Cn2c(C#CC(C)(C)O)cc3ccccc3c2=O)c(C)c1 [2-(2,4-dimethylbenzyl)-3-(3-hydroxy-3-methylbut-1-ynyl)-2H-isoquinolin-1-one] | 40 to 90 | > 500
2 | Cc1cccc(-c2cc3ccccc3c(=O)n2Cc2ccccc2)c1 [2-benzyl-3-m-tolyl-2H-isoquinolin-1-one] | < 40 | > 500
3 | O=c1c2c(Cl)cccc2cc(-c2ccc(Oc3ccccc3)cc2)n1Cc1ccc(F)cc1F [8-chloro-2-(2,4-difluorobenzyl)-3-(4-phenoxyphenyl)-2H-isoquinolin-1-one] | > 90 | 10 to 150
4 | Cc1ccc(Cn2c(-c3ccsc3)cc3ccccc3c2=O)c(C)c1 [2-(2,4-dimethylbenzyl)-3-thiophen-3-yl-2H-isoquinolin-1-one] | 40 to 90 | > 500
5 | Cc1ccc(Cn2c(-c3ccc(Oc4ccccc4)cc3)cc3cccc(C)c3c2=O)cc1 [8-methyl-2-(4-methylbenzyl)-3-(4-phenoxyphenyl)-2H-isoquinolin-1-one] | 40 to 90 | 10 to 150
6 | Cc1cccc(-c2cc3ccccc3c(=O)n2Cc2ccc(C)cc2C)c1 [2-(2,4-dimethylbenzyl)-3-m-tolyl-2H-isoquinolin-1-one] | 40 to 90 | 150 to 500

Second part, the molecule after the results:

Row | Emax [%] | EC50 [nM] | Structure (SMILES)
7 | > 90 | 10 to 150 | Cc1ccc(Cn2c(-c3ccc(Oc4ccccc4)cc3)cc3ccccc3c2=O)c(C)c1 [2-(2,4-dimethylbenzyl)-3-(4-phenoxyphenyl)-2H-isoquinolin-1-one]
8 | 40 to 90 | 10 to 150 | O=c1c2c(Cl)cccc2cc(-c2cc(-c3cc(C(F)(F)F)cc(C(F)(F)F)c3)co2)n1Cc1ccc(F)cc1F [3-[4-(3,5-bis-trifluoromethylphenyl)furan-2-yl]-8-chloro-2-(2,4-difluorobenzyl)-2H-isoquinolin-1-one]
9 | > 90 | < 10 | Nc1ccc(-c2coc(-c3cc4cccc(Cl)c4c(=O)n3Cc3ccc(F)cc3F)c2)cc1C(F)(F)F [3-[4-(4-amino-3-trifluoromethylphenyl)furan-2-yl]-8-chloro-2-(2,4-difluorobenzyl)-2H-isoquinolin-1-one]
10 | 40 to 90 | 10 to 150 | CCOc1ccc(-c2csc(-c3cc4cccc(Cl)c4c(=O)n3Cc3ccc(F)cc3F)c2)cc1Cl [8-chloro-3-[4-(3-chloro-4-ethoxyphenyl)thiophen-2-yl]-2-(2,4-difluorobenzyl)-2H-isoquinolin-1-one]
11 | 40 to 90 | 10 to 150 | O=c1c2c(Cl)cccc2cc(-c2ccc(Oc3ccccc3)cc2)n1Cc1cccs1 [8-chloro-3-(4-phenoxyphenyl)-2-thiophen-2-ylmethyl-2H-isoquinolin-1-one]
12 | 40 to 90 | 10 to 150 | O=c1c2c(Cl)cccc2cc(-c2ccc(Oc3ccccc3)cc2)n1CC1CCCCC1 [8-chloro-2-cyclohexylmethyl-3-(4-phenoxyphenyl)-2H-isoquinolin-1-one]
13 | 40 to 90 | 10 to 150 | CS(=O)(=O)c1ccc(-c2ccc(-c3cc4cccc(Cl)c4c(=O)n3Cc3ccc(F)cc3F)s2)cc1 [8-chloro-2-(2,4-difluorobenzyl)-3-[5-(4-methanesulfonylphenyl)thiophen-2-yl]-2H-isoquinolin-1-one]
14 | > 90 | < 10 | O=c1c2c(Cl)cccc2cc(-c2ccc(Oc3cnccn3)cc2)n1Cc1ccc(F)cc1F [8-chloro-2-(2,4-difluorobenzyl)-3-[4-(pyrazin-2-yloxy)phenyl]-2H-isoquinolin-1-one]
